Laboratory results reported in US20230338647A1, “SUBCUTANEOUSLY IMPLANTED DEVICE FOR GASTROINTESTINAL ADMINISTRATION OF SUBSTANCES” (Endopump Ltd., priority 2018, published 2023).

How the values were obtained:
[1] = Solubility of levodopa esters and carbidopa propyl ester in water acidified with acetic acid; assay type: physicochemical
Procedure: Without limitation, in one example, substance 14 may include several levodopa esters, including the ethyl ester, propyl ester, isopropyl ester and butyl ester. In experiments, these esters were successfully dissolved in water to which was added acetic acid until attaining pH 5 (in some cases pH 4.5). […] The propyl ester of carbidopa was solubilized under the same conditions and a clear solution of 100 mg/ml of the carbidopa propyl ester was obtained. A mixture of each of the above levodopa esters with carbidopa propyl ester was prepared at a ratio of 4:1 (levodopa ester/carbidopa ester) and a clear solution was obtained. The solution of the mixture was stable for at least two weeks based on chromatographic determination of levodopa esters and carbidopa ester. The formulations of the levodopa esters together with carbidopa ester were prepared in diluted acetic acid and ascorbic acid at a pH 5. Each one of the above mentioned esters have good stability.

[2] = Dissolution of L-DOPA/carbidopa/ascorbic acid mixture in 0.2 N HCl; assay type: physicochemical; details: 200 mg L-DOPA, 50 mg carbidopa, 2.5 mg ascorbic acid in 3.5 ml of 0.2 N HCl, vortexed and sonicated
Procedure: 3.5 ml of 0.2 N HCl were added to 200 mg of L- DOPA, 50 mg of carbidopa and 2.5 mg of ascorbic acid and the mixture was vortexed and then sonicated. […] Then 1N HCl was added dropwise till all L-DOPA was dissolved.

CCOC(=O)[C@@H](N)Cc1ccc(O)c(O)c1 [ethyl ester]
relative solubility among the levodopa esters (in words) [1]: highest solubility

CC(C)OC(=O)[C@@H](N)Cc1ccc(O)c(O)c1 [isopropyl ester]
solubility ([1]; pH 5, aqueous buffer, thermodynamic from solid): ≥ 400 mg/mL

CCCOC(=O)C(C)(Cc1ccc(O)c(O)c1)NN (centres unmarked) [carbidopa propyl ester]
soluble at a concentration of / clear solution obtained ([1]; water with acetic acid added until pH 5 (in some cases pH 4.5)): ≥ 100 mg/mL

CCCOC(=O)[C@@H](N)Cc1ccc(O)c(O)c1 [propyl ester]
soluble at a concentration of / clear solution obtained ([1]; pH 5): ≥ 400 mg/mL

N[C@@H](Cc1ccc(O)c(O)c1)C(=O)O [L- DOPA, L-3,4-dihydroxyphenylalanine]
dissolution of L-DOPA (in words) [2]: did not fully dissolve
